Assay results as given in ChEMBL document CHEMBL1201862, “PubChem BioAssay data set” (2004).
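Interpolation was linear, between the two tested concentrations surrounding the appropriate level; five concentrations were tested over 48 hours in 96-well plates. At the GI50, growth is halved.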 Active and inactive are the calls of the source. No stated cut-off is given here; in the data, active = GI50 up to about 1.1 µM and inactive = higher.

Columns and labels:
Test in all cases: DTP human tumour cell line panel, 48 h
[1] = system: HCT-116
[2] = system: OVCAR-3
[3] = system: HL-60
[4] = system: BT-549
[5] = system: UO-31
[6] = system: SNB-19
[7] = system: PC-3
[8] = system: Hs-578T
[9] = system: NCI-H460
[10] = system: SNB-75
[11] = system: HOP-92
[12] = system: M14
[13] = system: A549
[14] = system: MDA-MB-231
[15] = system: COLO 205
[16] = system: UACC-62
[17] = system: NCI-H23
[18] = system: HCC 2998
[19] = system: SF-539
[20] = system: SW-620

Measured: GI50

COc1cc2nc(-c3ccccc3F)nc(O)c2cc1OC
inactive: [1] > 100 µM | [2] > 100 µM | [3] > 100 µM | [4] > 100 µM | [5] 63.2 µM | [6] 63.8 µM | [7] > 100 µM | [8] 42.9 µM | [9] 71.8 µM | [10] > 100 µM | [11] > 100 µM | [12] > 100 µM | [13] > 100 µM | [14] > 100 µM | [15] > 100 µM | [16] 60 µM | [17] > 100 µM | [18] > 100 µM

O=C(OCc1ccccc1)N1CCNCCN(C(=O)OCc2ccccc2)CCNCC1
inactive: [1] 16.2 µM | [2] 35.4 µM | [3] 24.3 µM | [4] 45.6 µM | [5] 7.03 µM | [19] 14.6 µM | [6] 47.5 µM | [7] 25.9 µM | [8] 21.2 µM | [20] 32.1 µM | [9] 21.6 µM | [10] 25.6 µM | [11] 21.1 µM | [13] 63.2 µM | [14] 1.82 µM | [16] 27.5 µM

O=c1[nH]c(=O)n(COCc2ccccc2)c2ccsc12
inactive: [1] > 100 µM | [3] > 10 µM | [4] > 100 µM | [19] 66.8 µM | [6] 73.8 µM | [7] 61.9 µM | [8] 49.1 µM | [20] > 100 µM | [9] 55.8 µM | [10] 75 µM | [11] 15.8 µM | [12] > 100 µM | [13] > 100 µM | [14] > 100 µM | [15] > 100 µM | [18] > 100 µM

COc1ccc(-n2c(=O)n(C)c(=O)n2-c2ccc(OC)cc2)cc1
inactive: [1] 98.6 µM | [2] > 100 µM | [3] > 100 µM | [4] > 100 µM | [5] > 100 µM | [19] > 100 µM | [6] > 100 µM | [7] > 100 µM | [8] 9.48 µM | [20] > 100 µM | [9] > 100 µM | [10] 56.6 µM | [11] > 100 µM | [12] > 100 µM | [13] > 100 µM | [14] > 100 µM | [15] > 100 µM | [16] > 100 µM | [17] > 100 µM

CC(=O)O[C@H]1CC[C@@]2(C)C(=CC[C@@H]3[C@@H]2CC[C@]2(C)c4c(C)nn(-c5ccccc5)c4C[C@@H]32)C1
inactive: [1] 31 µM | [2] 28.7 µM | [3] 24.2 µM | [4] 9.95 µM | [5] 19.4 µM | [6] 31 µM | [7] 26.7 µM | [8] 11.2 µM | [20] 33.5 µM | [9] 13.8 µM | [10] 15.6 µM | [11] 22.2 µM | [12] 53.8 µM | [13] 35.9 µM | [14] 25.1 µM | [15] 15.5 µM | [16] 18.5 µM | [17] 13.2 µM | [18] 16.4 µM

C(=C\Nc1ccc(-c2ccccc2)cc1)/C=N/c1ccc(-c2ccccc2)cc1
inactive: [1] > 100 µM | [2] > 100 µM | [3] > 100 µM | [4] > 100 µM | [5] > 100 µM | [19] > 100 µM | [6] > 100 µM | [7] > 100 µM | [8] > 100 µM | [20] > 100 µM | [9] > 100 µM | [10] > 100 µM | [11] > 100 µM | [12] > 100 µM | [13] > 100 µM | [14] 79.8 µM | [15] > 100 µM | [16] > 100 µM | [17] > 100 µM
